Experimental findings from patent US9833497B2, “Human originated EGF domain proteins and use of the same” (CHENGDU SOURCEBIO LIMITED-LIABILITY COMPANY, priority 2013, dated 2017) are described below.

As a reminder, the MIC is the lowest concentration that inhibits growth of the organism.

Common to all, as to assay type: cell-based
For one test, the system named is Proteus vulgaris. Briefly: MIC against Gram-negative bacteria: Proteus vulgaris. In short, it runs like this:
(§1)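 Bacteria grown in LB at 37° C with shaking to McFarland 0.5, pelleted and resuspended in fresh LB, then seeded at 5×10^5 CFU/mL per well. Purified recombinant human EGF domain proteins were two-fold serially diluted in triplicate and plates shaken at 37° C, 175 rpm. MIC is the lowest protein concentration with no bacterial growth.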

The test system of the next test is Proteus mirabilis. The test is described as follows: MIC against Gram-negative bacteria: Proteus mirabilis. The procedure, abridged: as §1
For another test, the system named is Aeromonas hydrophila. The test is described as follows: MIC against Gram-negative bacteria: Aeromonas hydrophila. The procedure, abridged:
as §1

Another test deals with Citrobacter diversus. The test is described as follows: MIC against Gram-negative bacteria: Citrobacter diversus. In short, it runs like this:
as §1

The test system of another test is E. coli BL21. Briefly: MIC against Gram-negative bacteria: E. coli BL21. In short, it runs like this:
as §1

The test system of a further test is Enterobacter cloacae. The test is described as follows: MIC against Gram-negative bacteria: Enterobacter cloacae. In short, it runs like this: as §1
The next test concerns Moraxella catarrhalis. The test is described as follows: MIC against Gram-negative bacteria: Moraxella catarrhalis. In short, it runs like this: as §1
Another test relates to E. coli DH5α. The test is described as follows: Antibacterial activity: MIC and growth curve against E. coli DH5α in 96-well plate. The note with it: minimal inhibitory concentration against E. coli DH5α; 96-well plate, 5×10^5 CFU/mL, 37° C., judged after 8 h. In short, it runs like this: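 MIC taken as lowest protein level with no bacterial growth, tracked by A600 every 30 min during 37 °C, 175 rpm culture. Two-fold protein series 50-12.5 μg/mL final, triplicate wells, against 5×10^5 CFU/mL of LB-washed mid-log cells.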

The next test relates to Serratia marcescens. Briefly: MIC against Gram-negative bacteria: Serratia marcescens. In short, it runs like this:
as §1

The next test has as its system Pseudomonas aeruginosa. The test is described as follows: MIC against Gram-negative bacteria: Pseudomonas aeruginosa. In short, it runs like this:
as §1

In another test the test system is Klebsiella pneumonia. Briefly: MIC against Gram-negative bacteria: Klebsiella pneumonia. In short, it runs like this: as §1
Where [1] appears, read: Proteus vulgaris, 96-well plate, 5×10^5 CFU/mL, 37° C., 10 h.
Where [2] appears, read: Proteus mirabilis, 96-well plate, 5×10^5 CFU/mL, 37° C., 10 h.
Setting [3] is: Aeromonas hydrophila, 96-well plate, 5×10^5 CFU/mL, 37° C., 10 h.
The mark [4] stands for this setting: Citrobacter diversus, 96-well plate, 5×10^5 CFU/mL, 37° C., 10 h.
Where [5] appears, read: E. coli BL21, 96-well plate, 5×10^5 CFU/mL, 37° C., 10 h.
[6] abbreviates: Enterobacter cloacae, 96-well plate, 5×10^5 CFU/mL, 37° C., 10 h.
Setting [7] is: Moraxella catarrhalis, 96-well plate, 5×10^5 CFU/mL, 37° C., 10 h.
The mark [8] stands for this setting: Serratia marcescens, 96-well plate, 5×10^5 CFU/mL, 37° C., 10 h.
[9] abbreviates: Pseudomonas aeruginosa, 96-well plate, 5×10^5 CFU/mL, 37° C., 10 h.
Where [10] appears, read: Klebsiella pneumonia, 96-well plate, 5×10^5 CFU/mL, 37° C., 10 h.
Setting [11] is: 10 h cultivation at 37° C., 5×10^5 CFU/mL, two-fold serial dilution.

“PRT129 (CSTYGHLCRNGGRCREKRRGVTCDCAFSAYDGPFC; listed as Homo sapiens)”: the “MIC (μg/mL) P. vulgaris” value in the test with Proteus vulgaris (setting [1]) came to 12.5 µg/mL. For the same substance, the “MIC (μg/mL) P. mirabilis” value against Proteus mirabilis (setting [2]) stood at 25 µg/mL. Further, the “MIC (μg/mL) A. hydrophila” value in the test on Aeromonas hydrophila (setting [3]) worked out at 25 µg/mL. In addition, the “MIC (μg/mL) C. diversus” value in the test on Citrobacter diversus (setting [4]) stood at 12.5 µg/mL. Further, the “MIC (μg/mL) E. coli BL21” value against E. coli BL21 (setting [5]) amounted to 12.5 µg/mL. Further, in the test with Enterobacter cloacae (setting [6]), the “MIC (μg/mL) E. cloacae” value is 50 µg/mL. Moreover, the “MIC (μg/mL) M. catarrhalis” value in the test on Moraxella catarrhalis (setting [7]) was 25 µg/mL. In addition, the MIC with E. coli DH5α turned out to be 50 µg/mL. The “MIC (μg/mL) S. marcescens” value in the test on Serratia marcescens (setting [8]) came out at 12.5 µg/mL. Besides, the “MIC (μg/mL) P. aeruginosa” value against Pseudomonas aeruginosa (setting [9]) stood at 50 µg/mL. For the same substance, the “MIC (μg/mL) K. pneumonia” value in the test on Klebsiella pneumonia (setting [10]) amounted to 12.5 µg/mL.

In the case of “PRT199 (CLPETCNMKGICNNKHHCHCGYGWSPPYCQ; listed as Homo sapiens)”, the “MIC (μg/mL) P. vulgaris” value with Proteus vulgaris (P. vulgaris, 10 h cultivation at 37° C., 5×10^5 CFU/mL) was found to be 12.5 µg/mL. The “MIC (μg/mL) P. mirabilis” value in the test on Proteus mirabilis (P. mirabilis, 10 h cultivation at 37° C., 5×10^5 CFU/mL) worked out at 12.5 µg/mL. For the same substance, the “MIC (μg/mL) A. hydrophila” value in the test on Aeromonas hydrophila (A. hydrophila, 10 h cultivation at 37° C., 5×10^5 CFU/mL) was 12.5 µg/mL. For the same substance, in the test with Citrobacter diversus (C. diversus, 10 h cultivation at 37° C., 5×10^5 CFU/mL), the “MIC (μg/mL) C. diversus” value turned out to be 12.5 µg/mL. Moreover, the “MIC (μg/mL) E. coli BL21” value against E. coli BL21 (E. coli BL21, 10 h cultivation at 37° C., 5×10^5 CFU/mL) came out at 12.5 µg/mL. Besides, in the test with Enterobacter cloacae (E. cloacae, 10 h cultivation at 37° C., 5×10^5 CFU/mL), the “MIC (μg/mL) E. cloacae” value was 12.5 µg/mL. The “MIC (μg/mL) M. catarrhalis” value against Moraxella catarrhalis (M. catarrhalis, 10 h cultivation at 37° C., 5×10^5 CFU/mL) turned out to be 12.5 µg/mL. In the test with E. coli DH5α, the minimal inhibitory concentration (MIC) stood at 25 µg/mL. Also, the “MIC (μg/mL) S. marcescens” value against Serratia marcescens (S. marcescens, 10 h cultivation at 37° C., 5×10^5 CFU/mL) came to 25 µg/mL. Moreover, the “MIC (μg/mL) P. aeruginosa” value in the test with Pseudomonas aeruginosa (P. aeruginosa, 10 h cultivation at 37° C., 5×10^5 CFU/mL) is 12.5 µg/mL. Also, the “MIC (μg/mL) K. pneumonia” value in the test on Klebsiella pneumonia (K. pneumonia, 10 h cultivation at 37° C., 5×10^5 CFU/mL) was 12.5 µg/mL.

As to “PRT1011 (RAPSCGFHHCHHGGLCLPSPKPGFPPRCACLSGYGGPDCL; listed as Homo sapiens)”, the MIC with Proteus vulgaris (P. vulgaris, 10 h cultivation at 37° C.) came to 50 µg/mL; in the test on Proteus mirabilis (P. mirabilis, 10 h cultivation at 37° C.) it was 25 µg/mL; against Aeromonas hydrophila (A. hydrophila, 10 h cultivation at 37° C.), 50 µg/mL; in the test with Citrobacter diversus (C. diversus, 10 h cultivation at 37° C.), 25 µg/mL; with E. coli BL21 (E. coli BL21, 10 h cultivation at 37° C.), 50 µg/mL; with Enterobacter cloacae (E. cloacae, 10 h cultivation at 37° C.), 12.5 µg/mL. Moreover, the MIC in the test on Moraxella catarrhalis (M. catarrhalis, 10 h cultivation at 37° C.) is 12.5 µg/mL; in the test on E. coli DH5α it was 12.5 µg/mL; in the test with Serratia marcescens (S. marcescens, 10 h cultivation at 37° C.) it was 25 µg/mL; in the test on Pseudomonas aeruginosa (P. aeruginosa, 10 h cultivation at 37° C.), 12.5 µg/mL; against Klebsiella pneumonia (K. pneumonia, 10 h cultivation at 37° C.), 50 µg/mL.

For “PRT1162 (DIDDCILNACEHNSTCKDLHLSYQCVCLSDWEGNFCE; listed as Homo sapiens)”, the “MIC P. vulgaris” value against Proteus vulgaris (setting [11]) is 50 µg/mL. In addition, the “MIC P. mirabilis” value against Proteus mirabilis (setting [11]) is 25 µg/mL. In the test with Aeromonas hydrophila (setting [11]), the “MIC A. hydrophila” value was 50 µg/mL. For the same substance, the “MIC C. diversus” value in the test on Citrobacter diversus (setting [11]) amounted to 25 µg/mL. The “MIC E. coli BL21” value against E. coli BL21 (setting [11]) worked out at 50 µg/mL. Also, in the test with Enterobacter cloacae (setting [11]), the “MIC E. cloacae” value was found to be 12.5 µg/mL. Moreover, the “MIC M. catarrhalis” value against Moraxella catarrhalis (setting [11]) came to 12.5 µg/mL. Besides, in the test on E. coli DH5α, the minimal inhibitory concentration (MIC) was determined as 12.5 µg/mL. The “MIC S. marcescens” value against Serratia marcescens (setting [11]) came out at 25 µg/mL. In the test with Pseudomonas aeruginosa (setting [11]), the “MIC P. aeruginosa” value is 12.5 µg/mL. The “MIC K. pneumonia” value in the test on Klebsiella pneumonia (setting [11]) came out at 50 µg/mL.

With “PRT1246 (CKELCSCHPHGQCEDVTGQCTCHARRWGARCE; listed as Homo sapiens)”, the “MIC against P. vulgaris” value with Proteus vulgaris (setting [1]) turned out to be 25 µg/mL. For the same substance, in the test with Proteus mirabilis (setting [2]), the “MIC against P. mirabilis” value came out at 50 µg/mL. Also, the “MIC against A. hydrophila” value in the test with Aeromonas hydrophila (setting [3]) was found to be 25 µg/mL. Further, the “MIC against C. diversus” value against Citrobacter diversus (setting [4]) amounted to 12.5 µg/mL. In addition, the “MIC against E. coli BL21” value against E. coli BL21 (setting [5]) worked out at 25 µg/mL. In the test with Enterobacter cloacae (setting [6]), the “MIC against E. cloacae” value came to 50 µg/mL. Also, in the test with Moraxella catarrhalis (setting [7]), the “MIC against M. catarrhalis” value was 25 µg/mL. Moreover, the MIC against E. coli DH5α turned out to be 50 µg/mL. The “MIC against S. marcescens” value with Serratia marcescens (setting [8]) turned out to be 12.5 µg/mL. Besides, the “MIC against P. aeruginosa” value against Pseudomonas aeruginosa (setting [9]) is 12.5 µg/mL. Also, the “MIC against K. pneumonia” value against Klebsiella pneumonia (setting [10]) stood at 25 µg/mL.

Turning to “PRT1236 (IGDGCIDMCSGHGRCIQGNCVCDEQWGGLYCD; listed as Homo sapiens)”, the “MIC against P. vulgaris” value in the test with Proteus vulgaris (setting [1]) was determined as 12.5 µg/mL. Also, the “MIC against P. mirabilis” value in the test with Proteus mirabilis (setting [2]) came to 25 µg/mL. Also, the “MIC against A. hydrophila” value against Aeromonas hydrophila (setting [3]) is 50 µg/mL. Also, in the test on Citrobacter diversus (setting [4]), the “MIC against C. diversus” value came to 12.5 µg/mL. For the same substance, the “MIC against E. coli BL21” value in the test on E. coli BL21 (setting [5]) worked out at 25 µg/mL. In the test with Enterobacter cloacae (setting [6]), the “MIC against E. cloacae” value was 12.5 µg/mL. Further, the “MIC against M. catarrhalis” value in the test on Moraxella catarrhalis (setting [7]) worked out at 12.5 µg/mL. Further, the MIC in the test on E. coli DH5α is 50 µg/mL. In addition, in the test with Serratia marcescens (setting [8]), the “MIC against S. marcescens” value came to 25 µg/mL. The “MIC against P. aeruginosa” value against Pseudomonas aeruginosa (setting [9]) turned out to be 12.5 µg/mL. For the same substance, the “MIC against K. pneumonia” value against Klebsiella pneumonia (setting [10]) was 50 µg/mL.
